Like-named read-outs stand apart in the source and are kept apart here.
Tests used:
[1] = system: RAW cells; experiment: Active oxygen production in RAW cells (MitoSOX Red); assay type: cell-based
Protocol: RAW cells were seeded on a 96-well plate for fluorescence at 20 000 cells/well (D-MEM high glucose medium containing 10% inactivated FBS). […] Sixteen hours later, cells were treated with an HBSS solution containing dissolved MitoSOX™ Red Mitochondrial Superoxide Indicator (Invitrogen™) for 30 minutes, and the medium was replaced with D-MEM high glucose medium containing 1% inactivated FBS. Active oxygen production in mitochondria was determined by measuring fluorescence (Ex 510 nm, Em 580 nm) by using a plate reader (Infinite M Plex, Tecan). Cells for four wells were analyzed for each group.

[2] = system: RAW cells; experiment: Toxicity of anticancer agents against RAW cells (CellTiter-Glo viable cell count); assay type: cell-based
Protocol: RAW cells were seeded on a 96-well plate at 20 000 cells/well (D-MEM high glucose medium containing 10% inactivated FBS). […] The number of viable cells was counted 24 hours later by measuring chemical luminescence by using CellTiter-Glo™ 2.0 Cell Viability Assay (Promega) and a plate reader (Tecan, Infinite M Plex). Cells for four wells were analyzed for each group.

[3] = system: Large intestine cancer cells (colo320, HCT116); experiment: Proliferation of large intestine cancer cells (CCK-8); assay type: cell-based; conditions: OXA alone, 3-fold dilutions from 100 μM, 72 hours; FIG. 6
Protocol: Large intestine cancer cells (colo320, HCT116) were added to RPM1640 medium (Thermo Fisher Scientific Inc.) containing 10% fetal bovine serum and 100 units/mL penicillin-streptomycin (Gibco BRL) and cultured at 37° C. in a 5% CO2 incubator.
Cells were seeded on a 96-well plate at 10 000 cells/well and treated with a test solution 24 hours later. A test solution containing OXA alone was diluted 3-fold from 100 μM (10 levels) and added to a 96-well plate. A test solution containing OXA+PC-SOD was obtained by adding the same concentrations of OXA to PC-SOD (50 μg/mL) (n=3 per group). After cells were cultured for 72 hours, a CCK-8 solution was added in a volume of 1/10 of the solution in each well, and the mixture was measured at 490 nm of absorbance (Tecan, Tecan Japan). Data were expressed with mean±standard error (SEM). It should be noted that experiment conditions were allowed to be changed as required.

[4] = system: liver of OXA-treated rats; experiment: Pathological assessment of liver disorder caused by oxaliplatin (HE staining); assay type: in vivo, rat; conditions: PC-SOD 1 mg/kg, mangafodipir dose not given, FIG. 5
Description: A liver tissue was collected and fixed with 10% neutral buffered formalin to prepare a paraffin block by using Histos 5 (Milestone) and an embedding center (EG1160, Leica). The sample block was thinly sliced at a thickness of 3 μm by using a microtome (MR2245, Leica) to prepare a slide. The prepared slide was stained by HE staining, enclosed, and observed at 200 and 400-fold magnifications by using the optical microscope function of All-in-One Fluorescence Microscope (BZ-X800, Keyence Corporation). Observation and assessment were performed by observing the whole section. Two to four representative tissue images were randomly taken up, and alteration in the tissue structure, such as inflammation and necrosis, was observed and assessed (Scale bar=200 μm).

[5] = system: PC12 cells differentiated by NGF; experiment: Neurite retraction in NGF-differentiated PC12 cells caused by anticancer agents; assay type: cell-based, rat; conditions: oxaliplatin 20 μM, 24 hours, FIG. 8
Protocol: Rat adrenal gland pheochromocytoma-derived PC12 cells are known to be differentiated into neuron-like cells having neurites by nerve growth factor (NGF) and are widely used as a nerve cell model. To assess the neurite-protective action of PC-SOD, the effect of PC-SOD in neurite disorder caused by various anticancer agents was analyzed by using PC12 cells differentiated by NGF.
PC12 cells were seeded on a 24-well plate coated with collagen at 5 000 cells/well. […] The images of cells were captured by using a microscope (BZ-X800, Keyence Corporation), and the neurite lengths were measured by using an image analysis software ImageJ (NIH).
(§1) PC12 cells were seeded on a 24-well plate coated with collagen at 5 000 cells/well. […] After neurite elongation, cells were cultured by using differentiation media each containing carboplatin (with a final concentration of 50 μM) alone or carboplatin and PC-SOD (with final concentrations of 10, 20, 50, and 100 μg/mL) for 24 hours. The images of cells were captured by using a microscope (BZ-X800, Keyence Corporation), and the neurite lengths were measured by using an image analysis software ImageJ (NIH).
as §1, with “containing paclitaxel (abbreviated as PTX in the figure of results) alone” for “containing carboplatin”, “of 0.1” for “of 50”, “μM)” for “μM) alone”, “or paclitaxel” for “or carboplatin”, “10,” for “10, 20,”

[6] = anticancer agent alone, 16 hours, FIG. 13-1
[7] = anticancer agent alone, 24 hours, FIG. 12-1

Row | Compound | active oxygen production in mitochondria of RAW cells [1, 6] | number of viable RAW cells [2, 7] | active oxygen production in mitochondria of RAW cells [1] | further results
1 | N.N.O=C([O-])C1(C(=O)[O-])CCC1.[Pt+2] [carboplatin] | induced active oxygen production dependently on the concentration of the anticancer agent | decreased the number of viable cells dependently on the concentration of the anticancer agent |  | 
2 | N.N.[Cl][Pt][Cl] [cisplatin] |  |  | induced active oxygen production dependently on the concentration of the anticancer agent | 
3 | Nc1ccn([C@@H]2O[C@H](CO)[C@@H](O)C2(F)F)c(=O)n1 [gemcitabine] |  |  | induced active oxygen production dependently on the concentration of the anticancer agent | number of viable RAW cells [2]: decreased the number of viable cells dependently on the concentration of the anticancer agent
4 | O=C1[O][Pt]2([NH][C@@H]3CCCC[C@H]3[NH]2)[O]C1=O [oxaliplatin] | induced active oxygen production dependently on the concentration of the anticancer agent | decreased the number of viable cells dependently on the concentration of the anticancer agent |  | proliferation of large intestine cancer cells [3]: Suppression of proliferation of large intestine cancer cells caused by OXA was confirmed
5 | mangafodipir [reference compound] |  |  |  | necrosis of liver cells caused by OXA [4]: the suppressive effect on necrosis of liver cells caused by OXA was not observed; neurite retraction caused by oxaliplatin ([5]; test substance 5 μg/mL): a weak suppressing tendency was observed; neurite retraction caused by oxaliplatin ([5]; test substance at concentrations higher than 5 μg/mL (up to 50 μg/mL)): no higher retraction suppressing effect was observed

Source: patent US20240261375A1, “PHARMACEUTICAL COMPOSITION FOR TREATING OR PREVENTING DISORDER ASSOCIATED WITH ADMINISTRATION OF ANTICANCER AGENT” (LTT BIO-PHARMA CO., LTD., priority 2021, published 2024)
